According to patent US20040147607A1, “Stable gabapentin having pH within a controlled range” (priority 2000, published 2004):

How the values were obtained:
[1] = pH of purified gabapentin / gabapentin tablets; format: physicochemical
[2] = Storage stability: conversion of gabapentin to its corresponding lactam (HPLC vs. standard); format: physicochemical; settings: gabapentin pure; for conversion of gabapentin to its corresponding lactam: after a year of storage at 25° C. and 60% relative humidity
Description: Gabapentin purified according to these procedures contains less than 0.5% lactam as measured by HPLC vs. standard. After a year of storage at 25° C. and 60% relative humidity, the conversion of gabapentin to its corresponding lactam is measured not to exceed 0.2% by weight of gabapentin.

[3] = system: cardiozole cramp; settings: in animals; U.S. Pat. No. 4,024,175; cited from earlier work
[4] = according to Augart (U.S. Pat. No. 6,054,482); cited from earlier work
[5] = gabapentin pure after the reslurry in methanol (Examples 2, 3: basic agent added)
[6] = gabapentin pure after crystallization in methanol (Examples 11-16: basic agent added)

Compound	conversion of gabapentin to its corresponding lactam [2]	pH [1, 6]	further results
NCC1(CC(=O)O)CCCCC1 [Example 1, 1-(aminomethyl)-1-cyclohexaneacetic acid]	≤ 0.2 % by weight of gabapentin		pH [1, 5]: 6.84-7.04
NCC1(CC(=O)O)CCCCC1 [Example 2, 1-(aminomethyl)-1-cyclohexaneacetic acid]	≤ 0.2 % by weight of gabapentin		pH [1, 5]: 7.15
NCC1(CC(=O)O)CCCCC1 [Example 3, 1-(aminomethyl)-1-cyclohexaneacetic acid]	≤ 0.2 % by weight of gabapentin		pH [1, 5]: 6.8
NCC1(CC(=O)O)CCCCC1 [Example 4, 1-(aminomethyl)-1-cyclohexaneacetic acid]	≤ 0.2 % by weight of gabapentin		
NCC1(CC(=O)O)CCCCC1 [Example 11, 1-(aminomethyl)-1-cyclohexaneacetic acid]	≤ 0.2 % by weight of gabapentin	7.25	
NCC1(CC(=O)O)CCCCC1 [Example 12, 1-(aminomethyl)-1-cyclohexaneacetic acid]	≤ 0.2 % by weight of gabapentin	7.08	amount of lactam after storage ([2]; after a year of storage at 55° C. and 50% relative humidity): less than 0.5 % by weight
NCC1(CC(=O)O)CCCCC1 [Example 13, 1-(aminomethyl)-1-cyclohexaneacetic acid]	≤ 0.2 % by weight of gabapentin	7.28	amount of lactam after storage ([2]; after a year of storage at 25° C. and 50% relative humidity): less than 0.5 % by weight
NCC1(CC(=O)O)CCCCC1 [Example 14, 1-(aminomethyl)-1-cyclohexaneacetic acid]		7.03	
NCC1(CC(=O)O)CCCCC1 [Example 15, 1-(aminomethyl)-1-cyclohexaneacetic acid]		7.22	
NCC1(CC(=O)O)CCCCC1 [Example 16, 1-(aminomethyl)-1-cyclohexaneacetic acid]		7.17	
NCC1(CC(=O)O)CCCCC1 [gabapentin, 1-(aminomethyl)-1-cyclohexaneacetic acid]			protective effect against cardiozole cramp [3]: protective effect against cardiozole cramp
O=C1CC2(CCCCC2)CN1 [lactam]			toxicity compared with gabapentin [4]: higher toxicity than gabapentin
